In ChEMBL document CHEMBL1201862, “PubChem BioAssay data set” (2004):
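Tested at 5 concentrations; 48 h exposure; 96-well plates; endpoints linearly interpolated, else capped at highest concentration. At the GI50, growth is halved.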 Calls of active or inactive are those of the source. Cut-off read from the data, not from the text of the source: active = GI50 up to about 1.1 µM and inactive = higher.

Experiments:
Test in all cases: NCI tumour cell line growth inhibition, 48 h
[1] = tested on: CAKI-1
[2] = tested on: SW-620
[3] = tested on: TK-10
[4] = tested on: OVCAR-3
[5] = tested on: UO-31
[6] = tested on: MDA-MB-231
[7] = tested on: Hs-578T
[8] = tested on: ACHN
[9] = tested on: PC-3
[10] = tested on: M14
[11] = tested on: SF-539
[12] = tested on: OVCAR-8
[13] = tested on: LOX IMVI
[14] = tested on: COLO 205
[15] = tested on: NCI-H460
[16] = tested on: MOLT-4
[17] = tested on: SNB-75
[18] = tested on: HL-60
[19] = tested on: MCF7
[20] = tested on: NCI-H23

Compound	GI50 [1]	GI50 [2]	GI50 [3]	GI50 [4]	GI50 [5]	GI50 [6]	GI50 [7]	GI50 [8]	GI50 [9]	GI50 [10]	GI50 [11]	GI50 [12]	GI50 [13]	GI50 [14]	GI50 [15]	GI50 [16]	GI50 [17]	GI50 [18]	GI50 [19]	GI50 [20]
COC(=O)c1ccc(CCC2=CC(=O)C=CC2=O)cc1	4.11 µM (inactive)	4.52 µM (inactive)	19 µM (inactive)	6.85 µM (inactive)	7.36 µM (inactive)	19.4 µM (inactive)	24.8 µM (inactive)	7.71 µM (inactive)	12.1 µM (inactive)	15.1 µM (inactive)	11.5 µM (inactive)	17.4 µM (inactive)	6.4 µM (inactive)	7.03 µM (inactive)	19 µM (inactive)	1.63 µM (inactive)	16.3 µM (inactive)	0.728 µM (active)	6.59 µM (inactive)	17.9 µM (inactive)
COc1cc(C2SC(C)C(=O)N2c2ccc(-c3csc(NS(=O)(=O)c4ccc(Cl)c(OC)c4)n3)cc2)ccc1O (configuration not stated)	> 100 µM (inactive)	31.8 µM (inactive)	> 100 µM (inactive)	56.4 µM (inactive)	> 100 µM (inactive)	> 100 µM (inactive)	54.1 µM (inactive)	> 100 µM (inactive)	> 100 µM (inactive)	> 100 µM (inactive)	32.7 µM (inactive)	29.7 µM (inactive)	31.3 µM (inactive)	> 100 µM (inactive)	> 100 µM (inactive)	25.1 µM (inactive)	19.7 µM (inactive)	48.2 µM (inactive)	38.4 µM (inactive)	22.6 µM (inactive)
Cc1coc2c1CC1(C)C(CCC(O)C1C)C2 (configuration not stated)	> 100 µM (inactive)	> 100 µM (inactive)	> 100 µM (inactive)	> 100 µM (inactive)		> 100 µM (inactive)	> 100 µM (inactive)	> 100 µM (inactive)	> 100 µM (inactive)	> 100 µM (inactive)	> 100 µM (inactive)	> 100 µM (inactive)	> 100 µM (inactive)	> 100 µM (inactive)	> 100 µM (inactive)	> 100 µM (inactive)	> 100 µM (inactive)	> 100 µM (inactive)	> 100 µM (inactive)	> 100 µM (inactive)
N=C1OC(c2cccc(Cl)c2)C(NNS(=O)(=O)c2ccccc2)=C1O (configuration not stated)	31.4 µM (inactive)	12.8 µM (inactive)	37.7 µM (inactive)	23.1 µM (inactive)	26.6 µM (inactive)	18.2 µM (inactive)	27.4 µM (inactive)	31.6 µM (inactive)	21.2 µM (inactive)	22.4 µM (inactive)	33.4 µM (inactive)	30.5 µM (inactive)	20.7 µM (inactive)	13.2 µM (inactive)	44.1 µM (inactive)	4.11 µM (inactive)	26.9 µM (inactive)	2.87 µM (inactive)	22.4 µM (inactive)	25.8 µM (inactive)
CCOC(=O)C1=C(C)N(CC(C)C)C2(O)C(OC)CC(=O)C3C(=O)N(c4ccccc4)C(=O)C132 (configuration not stated)	37 µM (inactive)	34 µM (inactive)	77.1 µM (inactive)	43.3 µM (inactive)	20 µM (inactive)	89.1 µM (inactive)	92.3 µM (inactive)	24.9 µM (inactive)	34 µM (inactive)	38.3 µM (inactive)	49.4 µM (inactive)	26.1 µM (inactive)	31.3 µM (inactive)	39 µM (inactive)	36.5 µM (inactive)	15.4 µM (inactive)	20 µM (inactive)	25 µM (inactive)	35.5 µM (inactive)	35 µM (inactive)
O=S(=O)(CCn1c(Sc2ccccc2)c(Sc2ccccc2)c2ccccc21)c1ccccc1	55.8 µM (inactive)	> 100 µM (inactive)	> 100 µM (inactive)	> 100 µM (inactive)	> 100 µM (inactive)	> 100 µM (inactive)	40.5 µM (inactive)	> 100 µM (inactive)	> 100 µM (inactive)	> 100 µM (inactive)	> 100 µM (inactive)	> 100 µM (inactive)	> 100 µM (inactive)	> 100 µM (inactive)	> 100 µM (inactive)	> 100 µM (inactive)	> 100 µM (inactive)	> 100 µM (inactive)	> 100 µM (inactive)	> 100 µM (inactive)
COc1ccc(-c2nc3cc(C(F)(F)F)ccc3n2CC2CCCN3CCCCC23)cc1 (configuration not stated)	21 µM (inactive)	15.2 µM (inactive)	16.6 µM (inactive)	16.1 µM (inactive)	17.1 µM (inactive)	14.3 µM (inactive)	15.5 µM (inactive)	15.6 µM (inactive)	13.6 µM (inactive)	13 µM (inactive)	16.8 µM (inactive)	17.1 µM (inactive)	15 µM (inactive)		15.8 µM (inactive)	12.7 µM (inactive)	15.5 µM (inactive)	14.3 µM (inactive)	13.2 µM (inactive)	15.6 µM (inactive)
N=C(CSSCC(=N)NCC12CC3CC(CC(C3)C1)C2)NCC12CC3CC(CC(C3)C1)C2	18.7 µM (inactive)	17.5 µM (inactive)	18.8 µM (inactive)	16.1 µM (inactive)	18.2 µM (inactive)	2.12 µM (inactive)	23.4 µM (inactive)	13.3 µM (inactive)	14.9 µM (inactive)	18.2 µM (inactive)	17.7 µM (inactive)	18 µM (inactive)		19.2 µM (inactive)	29.2 µM (inactive)	3.1 µM (inactive)	20.8 µM (inactive)	11 µM (inactive)	29.7 µM (inactive)	16 µM (inactive)
COC1CC(N)C(O)C(C)O1 (configuration not stated)	> 100 µM (inactive)	> 100 µM (inactive)		> 100 µM (inactive)	> 100 µM (inactive)	> 100 µM (inactive)	> 100 µM (inactive)	> 100 µM (inactive)	> 100 µM (inactive)	> 100 µM (inactive)	> 100 µM (inactive)	> 100 µM (inactive)	> 100 µM (inactive)	> 100 µM (inactive)	> 100 µM (inactive)	> 100 µM (inactive)	> 100 µM (inactive)	> 100 µM (inactive)	> 100 µM (inactive)	> 100 µM (inactive)
CC1(c2nc3cc(Cl)c(Cl)cc3[nH]2)CCC(C(=O)O)C(C)(C)O1 (configuration not stated)	> 100 µM (inactive)	> 100 µM (inactive)	> 100 µM (inactive)	> 100 µM (inactive)	34.8 µM (inactive)	> 100 µM (inactive)	> 100 µM (inactive)	> 100 µM (inactive)	> 100 µM (inactive)	> 100 µM (inactive)	> 100 µM (inactive)	> 100 µM (inactive)	> 100 µM (inactive)	> 100 µM (inactive)		> 100 µM (inactive)	> 100 µM (inactive)	> 100 µM (inactive)	> 100 µM (inactive)	> 100 µM (inactive)
Cc1ccc(S(=O)(=O)NC(=O)Nc2cccc(S(N)(=O)=O)c2)cc1	> 100 µM (inactive)	> 100 µM (inactive)	> 100 µM (inactive)	> 100 µM (inactive)	> 100 µM (inactive)	> 100 µM (inactive)	> 100 µM (inactive)	> 100 µM (inactive)	> 100 µM (inactive)	> 100 µM (inactive)	> 100 µM (inactive)		> 100 µM (inactive)	> 100 µM (inactive)	> 100 µM (inactive)	> 100 µM (inactive)	> 100 µM (inactive)	> 100 µM (inactive)	> 100 µM (inactive)	> 100 µM (inactive)
CN(C)CCOC1(CC2CCCCC2)CCC(C(C)(C)C)CC1 (configuration not stated)	6.62 µM (inactive)	4.12 µM (inactive)	12.8 µM (inactive)	7.53 µM (inactive)	2.69 µM (inactive)	4.18 µM (inactive)	6.78 µM (inactive)	7.57 µM (inactive)	4.1 µM (inactive)	2.14 µM (inactive)	4.61 µM (inactive)	6.82 µM (inactive)	2.73 µM (inactive)	2.87 µM (inactive)	3.67 µM (inactive)	2.49 µM (inactive)	6.81 µM (inactive)	2.54 µM (inactive)	2.98 µM (inactive)	8.43 µM (inactive)
CC1(C)CCC[C@](C)([C@H]2CC[C@]3(C)[C@@H]2[C@H](O)C[C@@H]2[C@@]4(C)CC[C@H](O)C(C)(C)[C@@H]4[C@H](O)C[C@]23C)O1	5.6 µM (inactive)	13.2 µM (inactive)	11.3 µM (inactive)		11.7 µM (inactive)	17.3 µM (inactive)	12.9 µM (inactive)	12.1 µM (inactive)	10.9 µM (inactive)	14.9 µM (inactive)	11.7 µM (inactive)	16.9 µM (inactive)	17.5 µM (inactive)	10 µM (inactive)	10.1 µM (inactive)	3.78 µM (inactive)	10.7 µM (inactive)	2.16 µM (inactive)	9.73 µM (inactive)	11.3 µM (inactive)
O=C1C(c2c(O)[nH]c3ccc(Cl)cc23)=Nc2ccccc21	3.83 µM (inactive)	25.4 µM (inactive)	4.23 µM (inactive)	3.66 µM (inactive)		2.51 µM (inactive)	3.43 µM (inactive)	3.86 µM (inactive)	3.28 µM (inactive)	6.85 µM (inactive)	4.65 µM (inactive)	4.09 µM (inactive)	3.66 µM (inactive)	20 µM (inactive)	12.1 µM (inactive)	> 47 µM (inactive)	4.99 µM (inactive)	28.8 µM (inactive)	12.2 µM (inactive)	9.12 µM (inactive)
